Reference: US20210174908A1, “CLASSIFICATION OF TUMOR MICROENVIRONMENTS” (Oncxerna Therapeutics, Inc., priority 2019, published 2021)

Experiments:
[1] = system: MDSC; details: pre-clinical models; cited from earlier work
[2] = system: patients with gastric cancer; assay: Retrospective population-based TME classification of gastric cancer patients who received pembrolizumab (n = 45), RECIST response; type: in vivo, human; details: for Class response rate: population-based classifier
From the text: The analysis included 45 gastric cancer tumor samples.
The ORR for all patients was 27% (12/45). […] When the patients were retrospectively analyzed and placed in the Class IA, the response rate was 80%; and in Class IS, the response rate was 18%.

[3] = system: gastric cancer; assay: ANN classifier applied to pembrolizumab monotherapy gastric cancer data, threshold / probability score optimization; type: in vivo, human
From the text: Sensitivity refers to the number of true biomarker responders divided by number of actual responders; specificity refers to the number of true biomarker non-responders divided by number of actual non-responders; PPV refers to the number of true biomarker responders divided by number of total predicted biomarker responders (how well the biomarker-positive rating performs); and NPV—refers to the number of true biomarker non-responders divided by number of total predicted biomarker non-responders (how well the biomarker-negative rating performs).

[4] = system: HER2 negative metastatic breast cancer, NSCLC, hepatocellular carcinoma; details: with paclitaxel (HER2 negative metastatic breast cancer), paclitaxel-carboplatin (advanced NSCLC), sorafenib (hepatocellular carcinoma), docetaxel (non-squamous NSCLC); cited from earlier work
[5] = system: solid tumors; assay: Navicixizumab Phase 1A dose-escalation trial, retrospective Z-score and ANN biomarker analysis (n = 39); type: in vivo, human; details: for Patients with benefit (SD or better): gynecological cancers
Procedure: A retrospective data analysis of a Phase 1A dose-escalation trial for patients with solid tumors. […] Patients with the above cancers had biopsies collected. Exploratory predictive biomarkers such as DLL4 and VEGF were measured in FFPE tumor specimens, either archived or fresh core needle biopsied at study entry (2 FFPE cores were preferred whenever possible) by immunohistochemistry. […] In the biomarker-positive subset, 48% achieved SD or better.
Model performance is tabulated in TABLE 40; and abbreviations and definitions are as follows; ACC is accuracy; AUC ROC is area under the receiving operator characteristic curve; Sensitivity is the number of true biomarker responders divided by number of actual responders; Specificity is the number of true biomarker non-responders divided by number of actual non-responders; PPV is positive predictive value, i.e., number of true biomarker responders divided by number of total predicted biomarker responders; NPV is negative predictive value, i.e., number of true biomarker non-responders divided by number of total predicted biomarker non-responders.

Molecule: CCCc1nn(C)c2c(=O)[nH]c(-c3cc(S(=O)(=O)N4CCN(C)CC4)ccc3OCC)nc12 [sildenafil]
- Effect on MDSC functions [1]: significantly inhibited the MDSC functions

Molecule: Pembrolizumab
- ORR (CR + PR) or class response rate ([2]; All (ORR), n = 45): 12/45 (27%)
- CR ([2]; All, n = 45, patients/total): 3/45
- PD ([2]; All, n = 45, patients/total): 18/45
- PR ([2]; All, n = 45, patients/total): 9/45
- Class response rate ([2]; Class A): 0%
- Class response rate ([2]; Class IA, CR+PR in class / patients in class): 80%
- Class response rate ([2]; Class ID): 12%
- Class response rate ([2]; Class IS): 18%
- Overall Response Rate (ORR) ([2]; all patients, n = 45, CR+PR divided by total number of patients (RECIST)): 27%
- ORR (CR + PR) or class response rate ([2]; class A): 0/8 (0%)
- CR ([2]; class A, patients/class): 0/8
- PD ([2]; class A, patients/class): 3/8
- PR ([2]; class A, patients/class): 0/8
- ORR (CR + PR) or class response rate ([2]; class IA): 8/10 (80%)
- CR ([2]; class IA, patients/class): 2/10
- PD ([2]; class IA, patients/class): 2/10
- PR ([2]; class IA, patients/class): 6/10
- ORR (CR + PR) or class response rate ([2]; class ID): 2/16 (12%)
- CR ([2]; class ID, patients/class): 0/16
- PD ([2]; class ID, patients/class): 7/16
- PR ([2]; class ID, patients/class): 2/16
- ORR (CR + PR) or class response rate ([2]; class IS): 2/11 (18%)
- CR ([2]; class IS, patients/class): 1/11
- PD ([2]; class IS, patients/class): 6/11
- PR ([2]; class IS, patients/class): 1/11
- Biomarker positive Overall Response Rate (ORR) ([3]; Option 1: optimized threshold, both IS and IA groups (10/14)): 70%
- Biomarker-positive ORR ([3]; Option 2: optimized threshold, only the IA subgroup (8/8)): 100%
- Biomarker positive Overall Response Rate (ORR) ([3]; before threshold optimization): 80%

B1: Bavituximab (antibody, V domains shown)
VH: EVQLQQSGPELEKPGASVKLSCKASGYSFTGYNMNWVKQSHGKSLEWIGHIDPYYGDTSYNQKFRGKATLTVDKSSSTAYMQLKSLTSEDSAVYYCVKGGYYGHWYFDVWGAGTTVTVSS
VL: DIQMTQSPSSLSASLGERVSLTCRASQDIGSSLNWLQQGPDGTIKRLIYATSSLDSGVPKRFSGSRSGSDYSLTISSLESEDFVDYYCLQYVSSPPTFGAGTKLELK
notes: PS-targeting antibody
- Anti-tumor effects in clinical trials [4]: Promising anti-tumor effects

B2: Navicixizumab (antibody, chains of the INN, looked up, V domains shown)
VH: QVQLVQSGAEVKKPGASVKISCKASGYSFTAYYIHWVKQAPGQGLEWIGYISNYNRATNYNQKFKGRVTFTTDTSTSTAYMELRSLRSDDTAVYYCARDYDYDVGMDYWGQGTLVTVSS
VL: DIVMTQSPDSLAVSLGERATISCRASESVDNYGISFMKWFQQKPGQPPKLLIYAASNQGSGVPDRFSGSGSGTDFTLTISSLQAEDVAVYYCQQSKEVPWTFGGGTKVEIK
VH2: QVQLVQSGAEVKKPGASVKVSCKASGYTFTNYWMHWVRQAPGQGLEWMGDINPSNGRTSYKEKFKRRVTLSVDKSSSTAYMELSSLRSEDTAVYFCTIHYDDKYYPLMDYWGQGTLVTVSS
VL2: B2 VL
notes: anti-VEGF/anti-DLL4 bispecific antibody
- Patients achieving SD (Stable Disease) or better (RECIST 1.1) ([5]; all-comers biomarker subset, n = 39): 38%
- Patients achieving SD or better ([5]; biomarker-positive subset): 48%
- Patients with benefit (SD or better) ([5]; biomarker-negative (n=6)): 0%
- Patients with benefit (SD or better) ([5]; biomarker-positive (n=12)): 58%
